Measured values taken from publication PMC9765450, “Structures of Fission Yeast Inositol Pyrophosphate Kinase Asp1 in Ligand-Free, Substrate-Bound, and Product-Bound States” (mBio, 2022).

Biological target: T1, Asp1-(1-385) kinase domain (Schizosaccharomyces pombe, UniProt O74429, E248Q)
T1 construct: N-terminal kinase domain, residues 1-385
Test: PAGE kinase assay, toluidine blue staining
Format: biochemical
Details: 2 mM GTP, 0.5 mM 5-IP7, 5 mM MgCl2, pH 6.2, 37 °C; phosphate donor

Nc1nc2c(ncn2[C@@H]2O[C@H](COP(=O)(O)OP(=O)(O)OP(=O)(O)O)[C@@H](O)[C@H]2O)c(=O)[nH]1 [GTP]
PAGE kinase assay, toluidine blue staining: elicited a gain of function whereby GTP was enabled as a phosphate donor
